Assay results from ChEMBL document CHEMBL1132902, “Bicyclic nucleoside inhibitors of Varicella-Zoster Virus (VZV): the effect of a terminal halogen substitution in the side-chain” (Bioorg Med Chem Lett, 2000).
Each block holds one compound with its values, some of them ahead of it. Activity calls are given as the source filed them. The rule behind the calls is not given here.

Assays:
[1] = tested on: Human immunodeficiency virus 1; assay: In vitro activity of compound against HIV-1; Not active; type: functional, organism-based
Human alphaherpesvirus 2 [2] = assay: Compound was tested (in vitro) against Herpes simplex virus-2; Not active; type: functional, organism-based
Cytomegalovirus [3] = assay: Compound was tested (in vitro) against Cytomegalovirus virus or HIV-1; Not active; type: functional, organism-based
HEL = assay: The compound was tested for cytotoxic concentration required to inhibit Hel cell growth by 50%; type: functional; settings: Homo sapiens
[4] = The compound was tested for its minimal cytotoxic concentration required to alter microscopically detectable cell morphology; type: functional
Human alphaherpesvirus 3 [5] = assay: The compound was tested for its effective concentration required to reduce virus plaque formation by using TK (thymidine kinase -deficient) -Varicella-Zoster virus YS/R strain; type: functional, organism-based
Human alphaherpesvirus 3 [6] = assay: The compound was tested for its effective concentration required to reduce virus plaque formation by using Varicella-Zoster virus YS strain; type: functional, organism-based
Human alphaherpesvirus 3 [7] = assay: The compound was tested for its effective concentration required to reduce virus plaque formation by using TK (thymidine kinase -deficient)-Varicella-Zoster virus 07/1 strain; type: functional, organism-based
Human alphaherpesvirus 3 [8] = assay: The compound was tested for its effective concentration required to reduce virus plaque formation by using Varicella-Zoster virus OKA strain; type: functional, organism-based
Human alphaherpesvirus 2 [9] = assay: Compound was tested (in vitro) against Herpes simplex virus-2; type: functional, organism-based
Cytomegalovirus [10] = assay: Compound was tested (in vitro) against Cytomegalovirus virus or HIV-1; type: functional, organism-based
Human alphaherpesvirus 3 [11] = assay: The compound was tested for its effective concentration required to reduce virus plaque formation by using TK- (thymidine kinase -deficient)-Varicella-Zoster virus 07/1 strain; type: functional, organism-based
Human alphaherpesvirus 1 = assay: In vitro activity against Herpes simplex virus-1; Not active; type: functional, organism-based
Cytomegalovirus [12] = assay: In vitro activity against Cytomegalovirus virus; type: functional, organism-based
Human alphaherpesvirus 2 [13] = assay: In vitro activity against Herpes simplex virus-2; type: functional, organism-based

SMILES: O=c1nc2oc(CCCCCCCCCI)cc2cn1[C@H]1C[C@H](O)[C@@H](CO)O1
Activity [1]: inactive
Activity (Human alphaherpesvirus 2 [2]): inactive
Activity (Cytomegalovirus [3]): inactive
CC50 (HEL): > 200 µM
MCC [4]: 50 µM
EC50 (Human alphaherpesvirus 3 [5]): > 50 µM
EC50 (Human alphaherpesvirus 3 [6]): 0.034 µM
EC50 (Human alphaherpesvirus 3 [7]): > 50 µM
EC50 (Human alphaherpesvirus 3 [8]): 0.061 µM

SMILES: O=c1nc2oc(CCCCCCCCCCl)cc2cn1[C@H]1C[C@H](O)[C@@H](CO)O1
Activity [1]: inactive
CC50 (HEL): 200 µM
MCC [4]: > 200 µM
Activity (Human alphaherpesvirus 2 [9]): inactive
EC50 (Human alphaherpesvirus 3 [5]): 13 µM
EC50 (Human alphaherpesvirus 3 [6]): 0.012 µM
Activity (Cytomegalovirus [10]): inactive
EC50 (Human alphaherpesvirus 3 [7]): 15 µM
EC50 (Human alphaherpesvirus 3 [8]): 0.007 µM

SMILES: Nc1nc2c(ncn2COCCO)c(=O)[nH]1 [ACYCLOVIR]
CC50 (HEL): > 200 µM
MCC [4]: > 200 µM

SMILES: O=c1nc2oc(CCCCCCCCCF)cc2cn1[C@H]1C[C@H](O)[C@@H](CO)O1
Activity (Human alphaherpesvirus 1): inactive
Activity [1]: inactive
Activity (Cytomegalovirus [12]): inactive
CC50 (HEL): 200 µM
MCC [4]: > 50 µM
EC50 (Human alphaherpesvirus 3 [5]): > 20 µM
Activity (Human alphaherpesvirus 2 [13]): inactive
EC50 (Human alphaherpesvirus 3 [6]): 0.014 µM
EC50 (Human alphaherpesvirus 3 [7]): > 20 µM
EC50 (Human alphaherpesvirus 3 [8]): 0.022 µM

SMILES: O=c1nc2oc(CCCCCCCCCBr)cc2cn1[C@H]1C[C@H](O)[C@@H](CO)O1
Activity [1]: inactive
Activity (Human alphaherpesvirus 2 [2]): inactive
Activity (Cytomegalovirus [3]): inactive
CC50 (HEL): > 50 µM
MCC [4]: > 200 µM
EC50 (Human alphaherpesvirus 3 [5]): 50 µM
EC50 (Human alphaherpesvirus 3 [6]): 0.031 µM
EC50 (Human alphaherpesvirus 3 [7]): > 50 µM
EC50 (Human alphaherpesvirus 3 [8]): 0.026 µM

Now from value to compound, other results behind:

EC50 (Human alphaherpesvirus 3 [5]): > 50 µM
EC50 (Human alphaherpesvirus 3 [7]): > 50 µM
SMILES: CCCCCCCCCCc1cc2cn([C@H]3C[C@H](O)[C@@H](CO)O3)c(=O)nc2o1
CC50 (HEL): > 50 µM
MCC [4]: > 50 µM

EC50 (Human alphaherpesvirus 3 [11]): 33 µM
EC50 (Human alphaherpesvirus 3 [5]): 23 µM
EC50 (Human alphaherpesvirus 3 [6]): 22 µM
EC50 (Human alphaherpesvirus 3 [8]): 26 µM
SMILES: O=c1[nH]c(=O)n([C@H]2C[C@H](O)[C@@H](CO)O2)cc1C#CCCCCCCCCCF
CC50 (HEL): 116 µM
MCC [4]: 200 µM

EC50 (Human alphaherpesvirus 3 [5]): 9.6 µM
EC50 (Human alphaherpesvirus 3 [6]): 2.8 µM
EC50 (Human alphaherpesvirus 3 [7]): 10 µM
EC50 (Human alphaherpesvirus 3 [8]): 3.6 µM
SMILES: O=c1[nH]c(=O)n([C@H]2C[C@H](O)[C@@H](CO)O2)cc1C#CCCCCCCCCCCl
CC50 (HEL): 74 µM
MCC [4]: 200 µM

EC50 (Human alphaherpesvirus 3 [5]): 2.5 µM
EC50 (Human alphaherpesvirus 3 [6]): 0.8 µM
EC50 (Human alphaherpesvirus 3 [7]): 16 µM
EC50 (Human alphaherpesvirus 3 [8]): 1.1 µM
SMILES: O=c1[nH]c(=O)n([C@H]2C[C@H](O)[C@@H](CO)O2)cc1C#CCCCCCCCCCBr
CC50 (HEL): 97 µM
MCC [4]: 50 µM

EC50 (Human alphaherpesvirus 3 [5]): 31 µM
EC50 (Human alphaherpesvirus 3 [6]): 6 µM
EC50 (Human alphaherpesvirus 3 [7]): 36 µM
EC50 (Human alphaherpesvirus 3 [8]): 13 µM
SMILES: O=c1[nH]c(=O)n([C@H]2C[C@H](O)[C@@H](CO)O2)cc1C#CCCCCCCCCCI
CC50 (HEL): 68 µM
MCC [4]: > 50 µM
